Data from patent US11883526B2 (priority 2019, dated 2024).

Experiments:
[1] = Excerpt: This example provides an LC-MS/MS method for the determination of ketamine and norketamine in sodium heparin human plasma using ketamine-d4 and norketamine-d4 as the respective internal standards (IS).
[2] = system: subjects with MDD at imminent risk for suicide; type: in vivo, human; details: 84 mg
Procedure: Transient blood pressure increases peaked for the esketamine group at approximately 40 minutes post dose with the maximum mean increases (across all dosing days) in systolic BP being 8.7 in the placebo group and 16.7 in the esketamine 84 mg group. The maximum mean increases (across all dosing days) in diastolic BP were 7.6 in the placebo group and 11.9 in the esketamine 84 mg group. […] See, FIGS. 46 and 47.

[3] = system: subjects with MDD at imminent risk for suicide; assay: Beck Hopelessness Scale, BHS ([…]2001); type: in vivo, human; details: 84 mg, ANCOVA LOCF, ITT
Excerpt: The BHS is a self-reported measure to assess one's level of negative expectations or pessimism regarding the future. It consists of 20 true-false items that examine the respondent's attitude over the past week by either endorsing a pessimistic statement or denying an optimistic statement. For every statement, each response is assigned a score of 0 or 1. The total BHS score is a sum of item responses and ranges from 0 to 20, with a higher score representing a higher level of hopelessness.

[4] = Pharmacokinetics assembled from 14 Phase 1 studies (Example 10); details: for Terminal t1/2 / AUClast / Cmax / tmax: young adult subjects; for Terminal t1/2: range across studies; for AUClast / Cmax: range of mean values; for tmax: range of median values
Procedure: The data herein was assembled from 14 Phase 1 studies; each Phase 1 study was performed similarly to the study outlined in Example 9 in which the PK of esketamine was assessed.

[5] = system: elderly subjects with TRD; details: US patients aged ≥65 years
Procedure: Safety evaluation included reported adverse events, clinical laboratory tests, vital sign measurements, physical examinations, electrocardiograms and nasal examinations. Safety was assessed via treatment emergent AEs (TEAEs).

[6] = Pharmacokinetics of intranasal esketamine in healthy subjects (Example 9); details: across the 3 treatment groups
Procedure: This was an open-label, single-center study. The subjects were healthy Caucasian men and women, 20 to 55 years of age, inclusive. […] The solution consisted of:
Blood samples (4 mL each) for determination of esketamine and noresketamine plasma concentrations were collected into the appropriate collection tube (e.g., Vacutainer®) at timepoints 0.00, 0.12, 0.20, 0.37, 0.53, 0.67, 0.83, 1.00, 1.25, 1.50, 2.00, 3.00, 4.00, 6.00, 9.00, 12.00, 18.00, and 24.00 h. The total amount of blood to be drawn for clinical laboratory tests and PK evaluations is approximately 327 mL.
Plasma samples were analyzed for esketamine and noresketamine concentrations using the validated, specific and sensitive liquid chromatography coupled to tandem mass spectrometry (LC-MS/MS) achiral method of Example 8.
Serial PK blood samples (4 mL each) were collected for a 24-hour period from each subject (Periods 1, 2, and 3). […] Statistical Methods 1.6.4.1. Sample Size
The following key parameters of esketamine and noresketamine in plasma were calculated using noncompartmental methods and actual sampling times: Cmax, tmax, AUClast, AUC∞, t1/2,λ, and λz.

## CN[C@]1(c2ccccc2Cl)CCCCC1=O [esketamine, (S)-2-(2-chlorophenyl)-2-(methylamino)cyclohexanone]
[1]; freeze (−20° C.)/thaw (room temperature)
  QC sample freeze/thaw stability: 3 freeze (−20° C.)/thaw (room temperature) cycles
[1]; human plasma QC sample at −20° C.
  QC sample long-term storage stability: 707 days at −20 °C
[1]; human plasma QC sample, room temperature
  QC sample bench-top stability: 18 hours at room temperature
[2]
  blood pressure returning to normal range by: ≤ 2 hours post dose
[2]; across all dosing days
  maximum mean increase in diastolic BP: 11.9
  maximum mean increase in systolic BP: 16.7
[3]; Day 1(DB): 4 H
  BHS total score change from baseline, Diff. of LS Means (minus Placebo): −1.5
[3]; End Point(DB)
  BHS total score change from baseline, Diff. of LS Means (minus Placebo): −2.3
[4]; nasal administration
  mean terminal t1/2: 7 to 12 h
[4]; single dose nasal spray 28 mg
  Terminal t1/2: 7.25 to 16.5 h
  AUClast: 128 to 183 ng·h/mL
  Cmax: 49.7 to 70.5 ng/mL
  tmax: 0.33 to 0.67 h
[4]; single dose nasal spray 56 mg
  Terminal t1/2: 6.8 to 9.83 h
  AUClast: 216 to 317 ng·h/mL
  Cmax: 71.8 to 117 ng/mL
  tmax: 0.50 to 0.77 h
[4]; single dose nasal spray 84 mg
  Terminal t1/2: 6.6 to 12.0 h
  AUClast: 310 to 489 ng·h/mL
  Cmax: 95.0 to 164 ng/mL
  tmax: 0.53 to 0.83 h
[5]
  patients who withdrew the nasal spray: 2 n
[6]
  variability of AUC (AUClast and AUC∞): 25.0% to 30.4
  variability of Cmax (percent coefficient of variation): 35.7% to 36.7
